Data on 20 molecules can be found in US20260265233A1, “BENZOTHIOPHENE DERIVATIVES AS RXFP1 AGONISTS” (BRISTOL-MYERS SQUIBB COMPANY, priority 2021, published 2026).

The target of this assay is T1, human RXFP1 (Homo sapiens, UniProt Q9HBX9).
T1 construct: expressed in transfected cells
T1 sequence (Q9HBX9 1-757): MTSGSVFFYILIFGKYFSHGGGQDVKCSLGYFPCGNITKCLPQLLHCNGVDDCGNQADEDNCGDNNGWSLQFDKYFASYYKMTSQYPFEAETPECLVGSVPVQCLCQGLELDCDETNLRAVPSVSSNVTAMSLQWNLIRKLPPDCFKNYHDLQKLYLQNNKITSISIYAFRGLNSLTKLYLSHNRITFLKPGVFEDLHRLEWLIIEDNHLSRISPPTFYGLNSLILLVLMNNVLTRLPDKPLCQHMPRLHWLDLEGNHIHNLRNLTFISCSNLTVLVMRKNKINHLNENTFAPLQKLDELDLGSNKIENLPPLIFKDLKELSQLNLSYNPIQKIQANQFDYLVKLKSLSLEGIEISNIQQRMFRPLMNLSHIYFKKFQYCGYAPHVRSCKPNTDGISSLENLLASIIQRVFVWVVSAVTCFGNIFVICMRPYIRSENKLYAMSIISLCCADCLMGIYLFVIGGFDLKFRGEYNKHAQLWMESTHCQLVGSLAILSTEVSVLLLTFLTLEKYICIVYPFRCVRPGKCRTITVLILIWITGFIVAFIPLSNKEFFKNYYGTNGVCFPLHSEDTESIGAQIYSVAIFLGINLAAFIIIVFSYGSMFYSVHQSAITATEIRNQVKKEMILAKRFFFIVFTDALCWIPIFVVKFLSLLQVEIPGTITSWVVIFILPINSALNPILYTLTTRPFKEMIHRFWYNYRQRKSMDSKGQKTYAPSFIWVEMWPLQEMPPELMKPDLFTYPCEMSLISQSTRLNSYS
The experiment in a line: hRXFP1 HEK293 cAMP assay (HTRF). The class given is cell-based. Particulars: HEK293 cells stably expressing human RXFP1; 30 min at rt; intracellular cAMP by HTRF. In outline:
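HEK293 cells stably expressing human RXFP1 treated 30 min at rt with compound (0.010 nM to 50 μM, 2% DMSO) in HBSS/HEPES buffer with 0.5 mM IBMX. Intracellular cAMP measured by HTRF (665/590 nm ratio) against a cAMP standard curve; potency fitted by 4-parameter logistic.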
For the molecule `COc1ccc(C2CCCN(C(=O)C(=O)O)C2)cc1C(=O)Nc1c(C(=O)Nc2ccc(F)c(C(F)(F)F)c2)sc2cc(C(F)(F)F)ccc12` (centres unmarked) [Example 81, 2-(3-(3-((2-((4-fluoro-3-(trifluoromethyl)phenyl)carbamoyl)-6-(trifluoromethyl)benzo[b]thiophen-3-yl)carbamoyl)-4-methoxyphenyl)piperidin-1-yl)-2-oxoacetic acid], the 50% effective concentration (EC50) was determined as 203 nM.

In turn, `COc1ccc(C2CCCN(CC(N)=O)C2)cc1C(=O)Nc1c(C(=O)Nc2ccc(F)c(C(F)(F)F)c2)sc2cc(C(F)(F)F)ccc12` (centres unmarked) [Example 83, 3-(5-(1-(2-amino-2-oxoethyl)piperidin-3-yl)-2-methoxy-benzamido)-N-(4-fluoro-3-(trifluoromethyl)phenyl)-6-(trifluoromethyl) benzo[b] thiophene-2-carboxamide] came in with an EC50 of 608 nM.

Take `COc1ccc(C2CCCN(C3COC3)C2)cc1C(=O)Nc1c(C(=O)Nc2ccc(F)c(C(F)(F)F)c2)sc2cc(C(F)(F)F)ccc12` (centres unmarked) [Example 84, N-(4-fluoro-3-(trifluoromethyl)phenyl)-3-(2-methoxy-5-(1-(oxetan-3-yl)piperidin-3-yl)benzamido)-6-(trifluoromethyl) benzo[b] thiophene-2-carboxamide]: the EC50 amounted to 226 nM.

In the case of `COc1ccc(C2CCCN(CCO)C2)cc1C(=O)Nc1c(C(=O)Nc2ccc(F)c(C(F)(F)F)c2)sc2cc(C(F)(F)F)ccc12` (centres unmarked) [Example 85, N-(4-fluoro-3-(trifluoromethyl)phenyl)-3-(5-(1-(2-hydroxyethyl)piperidin-3-yl)-2-methoxy-benzamido)-6-(trifluoromethyl) benzo[b] thiophene-2-carboxamide], the 50% effective concentration (EC50) came to 1110 nM. Against the preceding molecule, the EC50 is about 4.9-fold higher.

`COc1ccc(C2CCCN(CC(O)CO)C2)cc1C(=O)Nc1c(C(=O)Nc2ccc(F)c(C(F)(F)F)c2)sc2cc(C(F)(F)F)ccc12` (centres unmarked) [Example 88, 3-(5-(1-(2,3-dihydroxypropyl)piperidin-3-yl)-2-methoxy-benzamido)-N-(4-fluoro-3-(trifluoromethyl)phenyl)-6-(trifluoromethyl) benzo[b] thiophene-2-carboxamide] gave an EC50 of 1540 nM.

For the molecule `COc1ccc(C2CCCN(CC(C)C)C2)cc1C(=O)Nc1c(C(=O)Nc2ccc(F)c(C(F)(F)F)c2)sc2cc(C(F)(F)F)ccc12` (centres unmarked) [Example 89, N-(4-fluoro-3-(trifluoromethyl)phenyl)-3-(5-(1-isobutylpiperidin-3-yl)-2-methoxy-benzamido)-6-(trifluoromethyl) benzo[b] thiophene-2-carboxamide], the response was half-maximal at 2180 nM (EC50). The EC50 values of the last two molecules are within 1.5-fold of each other.

The molecule `COc1ccc(C2CCCN(CCCO)C2)cc1C(=O)Nc1c(C(=O)Nc2ccc(F)c(C(F)(F)F)c2)sc2cc(C(F)(F)F)ccc12` (centres unmarked) [Example 90, N-(4-fluoro-3-(trifluoromethyl)phenyl)-3-(5-(1-(3-hydroxypropyl)piperidin-3-yl)-2-methoxy-benzamido)-6-(trifluoromethyl) benzo[b] thiophene-2-carboxamide] came in with an EC50 of 1580 nM.

As for `COc1ccc(C2CCCN(C(=O)C(C)(C)O)C2)cc1C(=O)Nc1c(C(=O)Nc2ccc(F)c(C(F)(F)F)c2)sc2cc(C(F)(F)F)ccc12` (centres unmarked) [Example 92, N-[4-fluoro-3-(trifluoromethyl)phenyl]-3-{5-[1-(2-hydroxy-2-methylpropanoyl)piperidin-3-yl]-2-methoxy-benzamido}-6-(trifluoromethyl)-1-benzothiophene-2-carboxamide], it took 165 nM to reach a half-maximal effect (EC50).

`COC(=O)C(=O)N1CCCC(c2ccc(OC)c(C(=O)Nc3c(C(=O)Nc4ccc(F)c(C(F)(F)F)c4)sc4cc(C(F)(F)F)ccc34)c2)C1` (centres unmarked) [Example 94, methyl 2-(3-(3-((2-((4-fluoro-3-(trifluoromethyl)phenyl)carbamoyl)-6-(trifluoromethyl)benzo[b]thiophen-3-yl)carbamoyl)-4-methoxyphenyl)piperidin-1-yl)-2-oxoacetate] gave an EC50 of 245 nM.

Turning to `COc1ccc(C2CCCN(C(=O)CN(C)C)C2)cc1C(=O)Nc1c(C(=O)Nc2ccc(F)c(C(F)(F)F)c2)sc2cc(C(F)(F)F)ccc12` (centres unmarked) [Example 95, 3-(5-(1-(dimethylglycyl)piperidin-3-yl)-2-methoxy-benzamido)-N-(4-fluoro-3-(trifluoromethyl)phenyl)-6-(trifluoromethyl) benzo[b] thiophene-2-carboxamide], the midpoint of the response, the EC50, lay at 870 nM.

In the case of `COc1ccc(C2CCCN(C(=O)CN)C2)cc1C(=O)Nc1c(C(=O)Nc2ccc(F)c(C(F)(F)F)c2)sc2cc(C(F)(F)F)ccc12` (centres unmarked) [Example 96, N-(4-fluoro-3-(trifluoromethyl)phenyl)-3-(5-(1-glycylpiperidin-3-yl)-2-methoxy-benzamido)-6-(trifluoromethyl) benzo[b] thiophene-2-carboxamide], the concentration for a half-maximal effect (EC50) amounted to 324 nM.

On to `COc1ccc(C2CCCN(C3COC3)C2)cc1C(=O)Nc1c(C(=O)Nc2ccc(F)c(C(F)(F)F)c2)sc2cc(C(F)(F)F)ccc12` (centres unmarked) [Example 97, N-(4-fluoro-3-(trifluoromethyl)phenyl)-3-(2-methoxy-5-(1-(oxetan-3-yl)piperidin-3-yl)benzamido)-6-(trifluoromethyl) benzo[b] thiophene-2-carboxamide], for which the response was half-maximal at 607 nM (EC50). Compared with the last molecule, the EC50 is about 1.9-fold higher.

For the molecule `COc1ccc(C2CCCN(C(=O)C3CCC3)C2)cc1C(=O)Nc1c(C(=O)Nc2ccc(F)c(C(F)(F)F)c2)sc2cc(C(F)(F)F)ccc12` (centres unmarked) [Example 98, 3-(5-(1-(cyclobutane-carbonyl)piperidin-3-yl)-2-methoxy-benzamido)-N-(4-fluoro-3-(trifluoromethyl)phenyl)-6-(trifluoromethyl) benzo[b] thiophene-2-carboxamide], it took 186 nM to reach a half-maximal effect (EC50).

`CNC(=O)CN1CCCC(c2ccc(OC)c(C(=O)Nc3c(C(=O)Nc4ccc(F)c(C(F)(F)F)c4)sc4cc(C(F)(F)F)ccc34)c2)C1` (centres unmarked) [Example 99, N-(4-fluoro-3-(trifluoromethyl)phenyl)-3-(2-methoxy-5-(1-(2-(methylamino)-2-oxoethyl)piperidin-3-yl)benzamido)-6-(trifluoromethyl) benzo[b] thiophene-2-carboxamide] showed a concentration for a half-maximal effect (EC50) of 1370 nM.

The molecule `COc1ccc(C2CCCN(CCS(C)(=O)=O)C2)cc1C(=O)Nc1c(C(=O)Nc2ccc(F)c(C(F)(F)F)c2)sc2cc(C(F)(F)F)ccc12` (centres unmarked) [Example 100, N-(4-fluoro-3-(trifluoromethyl)phenyl)-3-(2-methoxy-5-(1-(2-(methylsulfonyl)ethyl)piperidin-3-yl)benzamido)-6-(trifluoromethyl) benzo[b] thiophene-2-carboxamide] yielded an EC50 of 2010 nM.

As for `COc1ccc(C2CCCN(CC(O)CO)C2)cc1C(=O)Nc1c(C(=O)Nc2ccc(F)c(C(F)(F)F)c2)sc2cc(C(F)(F)F)ccc12` (centres unmarked) [Example 102, 3-(5-(1-(2,3-dihydroxypropyl)piperidin-3-yl)-2-methoxy-benzamido)-N-(4-fluoro-3-(trifluoromethyl)phenyl)-6-(trifluoromethyl) benzo[b] thiophene-2-carboxamide], it took 2230 nM to reach a half-maximal effect (EC50).

For `COc1ccc(C2CCCN(C(=O)C(C)(C)O)C2)cc1C(=O)Nc1c(C(=O)Nc2ccc(F)c(C(F)(F)F)c2)sc2cc(C(F)(F)F)ccc12` (centres unmarked) [Example 104, N-[4-fluoro-3-(trifluoromethyl)phenyl]-3-{5-[1-(2-hydroxy-2-methylpropanoyl)piperidin-3-yl]-2-methoxy-benzamido}-6-(trifluoromethyl)-1-benzothiophene-2-carboxamide], the response was half-maximal at 277 nM (EC50).

`COc1ccc(C2CC3(C2)CN(C2COC2)C3)cc1C(=O)Nc1c(C(=O)Nc2ccc(F)c(C(F)(F)F)c2)sc2cc(C(F)(F)F)ccc12` [Example 106, N-(4-fluoro-3-(trifluoromethyl)phenyl)-3-(2-methoxy-5-(2-(oxetan-3-yl)-2-azaspiro[3.3]heptan-6-yl)benzamido)-6-(trifluoromethyl) benzo[b] thiophene-2-carboxamide] had an EC50 of 248 nM. This EC50 and that of the molecule before are within 1.5-fold of each other.

Regarding `COc1ccc(C2CC3(C2)CN(C(=O)CC(C)(C)O)C3)cc1C(=O)Nc1c(C(=O)Nc2ccc(F)c(C(F)(F)F)c2)sc2cc(C(F)(F)F)ccc12` [Example 109, N-(4-fluoro-3-(trifluoromethyl)phenyl)-3-(5-(2-(3-hydroxy-3-methylbutanoyl)-2-azaspiro[3.3]heptan-6-yl)-2-methoxy-benzamido)-6-(trifluoromethyl) benzo[b] thiophene-2-carboxamide], the EC50 came out at 509 nM.

The molecule `COc1cc(F)c(C#CCO)cc1C(=O)Nc1c(C(=O)Nc2ccc(F)c(C(F)(F)F)c2)sc2cc(C(F)(F)F)ccc12` [Example 110, N-(4-fluoro-3-(trifluoromethyl)phenyl)-3-(4-fluoro-5-(3-hydroxyprop-1-yn-1-yl)-2-methoxy-benzamido)-6-(trifluoromethyl) benzo[b] thiophene-2-carboxamide] came in with a 50% effective concentration (EC50) of 144 nM.

In general, EC50 refers to the concentration needed to bring the measured effect to its halfway point. A lower EC50 goes with an effect from little substance.
